Assay [1] deals with Sodium-dependent serotonin transporter. Kind of assay: Inhibition of [3H]citalopram binding to the serotonin transporter in the cynomolgus (macaca fascicularis) monkey caudate-putamen. In kind it is tissue-based, Cercopithecidae.
The nature of assay [2]: Inhibition of [3H]WIN-35428 binding to the dopamine transporter in the cynomolgus (macaca fascicularis) monkey caudate-putamen.

Among the data in ChEMBL document CHEMBL1129654, “2-Carbomethoxy-3-(diarylmethoxy)-1 alpha H, 5 alpha H-tropane analogs: synthesis and inhibition of binding at the dopamine transporter and comparison with piperazines of the GBR series” (J Med Chem, 1996) are IC50 values, retold here.

Usually IC50 stands for the concentration at which inhibition is half-maximal.

In the case of `COC(=O)C1C2CCC(C[C@@H]1OC(c1ccccc1)c1ccc(I)cc1)N2C` (stereo partly drawn), the IC50 in assay [1] worked out at 9.28 µM.

As for `COC(=O)C1C2CCC(C[C@@H]1OC(c1ccc(Br)cc1)c1ccc(Br)cc1)N2C` (stereo partly drawn), in assay [1], the IC50 was 2.43 µM.

Consider `COC(=O)C1C2CCC(C[C@@H]1OC(c1ccc(F)cc1)c1ccc(F)cc1)N2CCCc1ccc(Br)cc1` (stereo partly drawn), for which, in assay [1], the IC50 is 0.234 µM.

In assay [1], `COC(=O)C1C2CCC(C[C@@H]1OC(c1ccc(F)cc1)c1ccc(F)cc1)N2Cc1ccccc1` (stereo partly drawn) registered an IC50 of 4.97 µM.

`COC(=O)C1C2CCC(C[C@@H]1OC(c1ccccc1)c1ccccc1)N2C` (stereo partly drawn) displayed an IC50 in assay [1] of 10.1 µM.

Consider `COC(=O)C1C2CCC(C[C@@H]1OC(c1ccccc1)c1ccc(C)cc1)N2C` (stereo partly drawn), for which the IC50 in assay [1] was 13.2 µM.

As to `COC(=O)C1C2CCC(C[C@@H]1OC(c1ccc(F)cc1)c1ccc(F)cc1)N2CCCc1ccc(I)cc1` (stereo partly drawn), the IC50 in assay [1] was found to be 2.2 µM; in assay [2] it was 0.119 µM.

Take `COC(=O)C1C2CCC(C[C@@H]1OC(c1ccc(F)cc1)c1ccc(F)cc1)N2CCCc1ccccc1` (stereo partly drawn): the IC50 in assay [1] stood at 0.0197 µM.

As to `COC(=O)C1C2CC[C@@H](C[C@@H]1OC(c1ccc(F)cc1)c1ccc(F)cc1)N2C` (stereo partly drawn), the IC50 in assay [1] is 3.53 µM.

With `COC(=O)C1C2CCC(C[C@@H]1OC1c3ccccc3-c3ccccc31)N2C` (stereo partly drawn), the IC50 in assay [1] amounted to 3.44 µM; in assay [2], 6.03 µM.

As for `COC(=O)C1C2CCC(C[C@@H]1OC(c1ccc(Cl)cc1)c1ccc(Cl)cc1)N2C` (stereo partly drawn), the figures for the IC50 in assay [1] and in assay [2] were 3.36 µM and 0.0914 µM, respectively.

In the case of `COC(=O)C1C2CCC(C[C@@H]1OC(c1ccccc1)c1ccc(Cl)cc1)N2C` (stereo partly drawn), the IC50 in assay [1] amounted to 5.96 µM.

`COC(=O)C1C2CCC(C[C@@H]1OC(c1ccccc1)c1ccc(F)cc1)N2C` (stereo partly drawn): the IC50 in assay [1] came out at 4.93 µM; in assay [2], 0.0132 µM.

For `COC(=O)C1C2CCC(C[C@@H]1OC(c1ccc(F)cc1)c1ccc(F)cc1)N2CCCCCc1ccccc1` (stereo partly drawn), the figures for the IC50 in assay [1] and in assay [2] were 0.55 µM and 0.099 µM, respectively.

For `COC(=O)C1C2CCC(C[C@@H]1OC(c1ccc(Br)cc1)c1ccc(I)cc1)N2C` (stereo partly drawn), the IC50 in assay [1] was 4.39 µM; in assay [2] it was 0.389 µM.

Take `CCC(O[C@H]1CC2CCC(C1C(=O)OC)N2C)c1ccccc1` (stereo partly drawn): the IC50 in assay [1] was found to be 21 µM.

For the compound `COC(=O)C1C2CCC(C[C@@H]1OC(c1ccccc1)c1ccc(Br)cc1)N2C` (stereo partly drawn), the figures for the IC50 in assay [1] and in assay [2] were 5.77 µM and 0.024 µM, respectively.

Compound `COC(=O)C1C2CCC(C[C@@H]1OC(c1ccc(I)cc1)c1ccc(I)cc1)N2C` (stereo partly drawn) yielded an IC50 in assay [1] of 8.55 µM.

Consider `COC(=O)C1C2CCC(C[C@@H]1OC(c1ccc(C)cc1)c1ccc(C)cc1)N2C` (stereo partly drawn), for which the IC50 in assay [1] came out at 9.8 µM; in assay [2], 0.24 µM.

On to `CN1C2CCC1CC(OC(c1ccc(F)cc1)c1ccc(F)cc1)C2` (stereo not drawn) [DIFLUOROBENZTROPINE], for which the IC50 in assay [1] is 5.34 µM.
